Measured values taken from PubChem BioAssay AID248 (DTP/NCI, 2004).
“And” between values parts separate entries of the source, which are not always exact repeats. Equal entries are not always repeated. Toxic doses and inconclusive results are not listed. No stated cut-off is given here; in the data, active means T/C of 150% or more; inactive means T/C below 125%.

Test system: L1210 leukemia ip in BDF1 mice, survival T/C
Assay: NCI In Vivo Anticancer Drug Screen. Data for tumor model L1210 Leukemia (intraperitoneal) in B6D2F1 (BDF1) mice
Settings: endpoint: mean survival time, higher = longer survival
How it was run: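 Value reflects the ratio of survival in compound-treated mice to survival in vehicle-treated controls, with both groups carrying the same transplanted tumor.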

[1] = dose: 100.0 mg/kg/injection, schedule: Q04DX003 (ip), vehicle: saline sonified
[2] = dose: 200.0 mg/kg/injection, schedule: Q04DX003 (ip), vehicle: saline sonified
[3] = dose: 400.0 mg/kg/injection, schedule: Q04DX003 (ip), vehicle: saline sonified
[4] = dose: 25.0 mg/kg/injection, schedule: Q04DX002 (ip), vehicle: Klucel (hydroxypropylcellulose) (HPC)
[5] = dose: 50.0 mg/kg/injection, schedule: Q04DX002 (ip), vehicle: Klucel (hydroxypropylcellulose) (HPC)
[6] = dose: 100.0 mg/kg/injection, schedule: Q04DX002 (ip), vehicle: Klucel (hydroxypropylcellulose) (HPC)
[7] = dose: 50.0 mg/kg/injection, schedule: Q01DX001 (ip), vehicle: saline
[8] = dose: 100.0 mg/kg/injection, schedule: Q01DX001 (ip), vehicle: saline
[9] = dose: 200.0 mg/kg/injection, schedule: Q01DX001 (ip), vehicle: saline
[10] = dose: 400.0 mg/kg/injection, schedule: Q01DX001 (ip), vehicle: saline
[11] = dose: 100.0 mg/kg/injection, schedule: Q01DX001 (ip), vehicle: Klucel (hydroxypropylcellulose) (HPC)
[12] = dose: 200.0 mg/kg/injection, schedule: Q01DX001 (ip), vehicle: Klucel (hydroxypropylcellulose) (HPC)
[13] = dose: 400.0 mg/kg/injection, schedule: Q01DX001 (ip), vehicle: Klucel (hydroxypropylcellulose) (HPC)
[14] = dose: 100.0 mg/kg/injection, schedule: Q04DX003 (ip), vehicle: Klucel (hydroxypropylcellulose) (HPC)
[15] = dose: 200.0 mg/kg/injection, schedule: Q04DX003 (ip), vehicle: Klucel (hydroxypropylcellulose) (HPC)
[16] = dose: 400.0 mg/kg/injection, schedule: Q04DX003 (ip), vehicle: Klucel (hydroxypropylcellulose) (HPC)
[17] = dose: 50.0 mg/kg/injection, schedule: Q01DX009 (ip), vehicle: saline with Tween-80
[18] = dose: 100.0 mg/kg/injection, schedule: Q01DX009 (ip), vehicle: saline with Tween-80
[19] = dose: 100.0 mg/kg/injection, schedule: Q01DX009 (ip), vehicle: Klucel (hydroxypropylcellulose) (HPC)
[20] = dose: 200.0 mg/kg/injection, schedule: Q01DX009 (ip), vehicle: Klucel (hydroxypropylcellulose) (HPC)
[21] = dose: 40.0 mg/kg/injection, schedule: Q01DX001 (ip), vehicle: saline
[22] = dose: 50.0 mg/kg/injection, schedule: Q01DX009 (ip), vehicle: Klucel (hydroxypropylcellulose) (HPC)

Measured: T/C

COC(=O)C(O)c1ccc2c(c1)OCO2 (configuration not stated)
inactive: [1] 97 % of control | [2] 97 % of control | [3] 93 % of control

O=[Se](c1ccccc1)c1ccccc1
inactive: [4] 103 % of control | [5] 94 % of control | [6] 87 % of control

COc1ccc([N+](=O)[O-])cc1[I+]c1cc([N+](=O)[O-])ccc1OC
inactive: [7] 111 % of control | [8] 90 % of control | [9] 96 % of control | [10] 90 % of control

Cc1cc2nc(CCl)[nH]c2cc1C
inactive: [7] 106 % of control | [8] 108 % of control | [9] 112 % of control

CCCC1C/C(=C\NC(N)=O)C(=O)O1 (configuration not stated)
inactive: dose: 100.0 mg/kg/injection, schedule: Q01DX005 (ip), vehicle: saline with Tween-80 100 % of control | dose: 100.0 mg/kg/injection, schedule: Q04DX003 (ip), vehicle: saline with Tween-80 104 % of control | dose: 200.0 mg/kg/injection, schedule: Q01DX005 (ip), vehicle: saline with Tween-80 100 % of control | dose: 200.0 mg/kg/injection, schedule: Q04DX003 (ip), vehicle: saline with Tween-80 96 % of control | dose: 400.0 mg/kg/injection, schedule: Q01DX005 (ip), vehicle: saline with Tween-80 112 % of control | dose: 400.0 mg/kg/injection, schedule: Q04DX003 (ip), vehicle: saline with Tween-80 101 % of control

CCOC(=O)CNCc1cccc(Cl)c1
inactive: dose: 100.0 mg/kg/injection, schedule: Q01DX009 (ip), vehicle: saline 98 % of control | dose: 100.0 mg/kg/injection, schedule: Q04DX003 (ip), vehicle: saline 102 % of control | dose: 200.0 mg/kg/injection, schedule: Q01DX009 (ip), vehicle: saline 95 % of control | dose: 200.0 mg/kg/injection, schedule: Q04DX003 (ip), vehicle: saline 100 % of control | dose: 400.0 mg/kg/injection, schedule: Q04DX003 (ip), vehicle: saline 95 % of control

CC1(C)CC2(C)OC3(C)CC(C)(C)OC3(C)OC2(C)O1 (configuration not stated)
inactive: [11] 107 % of control | [12] 102 % of control | [13] 102 % of control

O=C(Nc1cc([N+](=O)[O-])ccc1F)Oc1cccc(C(F)(F)F)c1
inactive: [14] 89 % of control | [15] 97 % of control | [16] 95 % of control

COc1ccc(C)cc1NC(=O)Sc1ccc(Cl)cc1
inactive: [17] 117 % of control | [18] 95 % of control

CCOP(=O)(/C(=C\c1ccccc1)C(=O)c1ccccc1)c1ccccc1 (configuration not stated)
inactive: [19] 96 % of control | [14] 95 % of control | [20] 95 % of control | [15] 98 % of control | dose: 300.0 mg/kg/injection, schedule: Q01DX009 (ip), vehicle: Klucel (hydroxypropylcellulose) (HPC) 90 % of control | [16] 98 % of control

CC1(C)OC(=O)CC1c1ccccc1 (configuration not stated)
inactive: dose: 5.0 mg/kg/injection, schedule: Q01DX001 (ip), vehicle: saline 108 % of control | dose: 10.0 mg/kg/injection, schedule: Q01DX001 (ip), vehicle: saline 101 % of control | dose: 20.0 mg/kg/injection, schedule: Q01DX001 (ip), vehicle: saline 86 % of control | [21] 97 % of control | dose: 80.0 mg/kg/injection, schedule: Q01DX001 (ip), vehicle: saline 101 % of control | [8] 102 % of control | [10] 95 % of control

COCCNC(=O)N(CCOC)N=O
inactive: dose: 9.0 mg/kg/injection, schedule: Q01DX001 (ip), vehicle: saline 101 % of control | dose: 13.0 mg/kg/injection, schedule: Q01DX001 (ip), vehicle: saline 96 % of control | dose: 26.0 mg/kg/injection, schedule: Q01DX001 (ip), vehicle: saline 102 % of control | [21] 104 % of control | dose: 60.0 mg/kg/injection, schedule: Q01DX001 (ip), vehicle: saline 102 % of control | dose: 93.0 mg/kg/injection, schedule: Q01DX001 (ip), vehicle: saline 95 % of control | dose: 187.0 mg/kg/injection, schedule: Q01DX001 (ip), vehicle: saline 112 % of control | dose: 250.0 mg/kg/injection, schedule: Q01DX001 (ip), vehicle: saline 113 % of control | dose: 500.0 mg/kg/injection, schedule: Q01DX001 (ip), vehicle: saline 112 % of control

c1ccc(-c2c(-c3ccc4c(c3)OCO4)c(-c3ccc4c(c3)OCO4)c(-c3ccccc3)c3ccccc23)cc1
inactive: dose: 100.0 mg/kg/injection, schedule: Q01DX001 (ip), vehicle: saline with Tween-80 92 % of control | dose: 200.0 mg/kg/injection, schedule: Q01DX001 (ip), vehicle: saline with Tween-80 100 % of control

CC(=O)N1Cc2cccn2Cc2cc3c(cc21)OCO3
inactive: [4] 97 % of control | [5] 87 % of control | [6] 97 % of control

COc1c2ccoc2c(OCC=C(C)C)c2oc(=O)ccc12
inactive: dose: 100.0 mg/kg/injection, schedule: Q01DX009 (ip), vehicle: other 98 % of control | [1] 107 % of control | dose: 200.0 mg/kg/injection, schedule: Q01DX009 (ip), vehicle: other 111 % of control | [2] 102 % of control | dose: 400.0 mg/kg/injection, schedule: Q01DX009 (ip), vehicle: other 95 % of control | [3] 97 % of control

S=C(Nc1ccccc1)Nc1ccc(Cl)c(Cl)c1
inactive: dose: 12.5 mg/kg/injection, schedule: Q01DX009 (ip), vehicle: saline with Tween-80 95 % of control | dose: 25.0 mg/kg/injection, schedule: Q01DX009 (ip), vehicle: saline with Tween-80 92 % of control and 90 % of control | [17] 105 % of control | [18] 87 % of control and 91 % of control

O=C1C(Cl)=C(Cl)C(Cl)(Cl)C1(Cl)Cl
inactive: dose: 12.5 mg/kg/injection, schedule: Q01DX009 (ip), vehicle: Klucel (hydroxypropylcellulose) (HPC) 98 % of control | dose: 12.5 mg/kg/injection, schedule: Q04DX003 (ip), vehicle: Klucel (hydroxypropylcellulose) (HPC) 98 % of control | dose: 25.0 mg/kg/injection, schedule: Q01DX009 (ip), vehicle: Klucel (hydroxypropylcellulose) (HPC) 101 % of control | dose: 25.0 mg/kg/injection, schedule: Q04DX003 (ip), vehicle: Klucel (hydroxypropylcellulose) (HPC) 96 % of control | [22] 94 % of control | dose: 50.0 mg/kg/injection, schedule: Q04DX003 (ip), vehicle: Klucel (hydroxypropylcellulose) (HPC) 100 % of control

O=C1S/C(=C/c2ccccc2)C(=O)N1c1ccccc1
inactive: [11] 98 % of control | [12] 90 % of control | [13] 94 % of control

CCc1ccncc1
inactive: [8] 101 % of control | [9] 88 % of control

Cc1cc(C(=O)O)c(C)n1-c1cccc(C(=O)O)c1
inactive: [22] 102 % of control | [11] 94 % of control | [19] 102 % of control | [12] 102 % of control | [20] 89 % of control | [13] 91 % of control

CSC(NC(=O)c1ccccc1)C(N)=O (configuration not stated)
inactive: [6] 101 % of control | dose: 200.0 mg/kg/injection, schedule: Q04DX002 (ip), vehicle: Klucel (hydroxypropylcellulose) (HPC) 109 % of control | dose: 400.0 mg/kg/injection, schedule: Q04DX002 (ip), vehicle: Klucel (hydroxypropylcellulose) (HPC) 97 % of control

CS(=O)(=O)OCC1CCCCC1COS(C)(=O)=O (configuration not stated)
inactive: [19] 107 % of control | [20] 104 % of control | dose: 400.0 mg/kg/injection, schedule: Q01DX009 (ip), vehicle: Klucel (hydroxypropylcellulose) (HPC) 93 % of control
